According to ChEMBL document CHEMBL1908284, “Rational use of in vitro P-glycoprotein assays in drug discovery” (J Pharmacol Exp Ther, 2001):

Legend:
[1] = molecular target: T1, ATP-dependent translocase ABCB1 (Homo sapiens, UniProt P08183); experiment: TP_TRANSPORTER: ATP hydrolysis in MDR1-expressing Sf9 cells; assay type: functional
[2] = molecular target: T1, ATP-dependent translocase ABCB1; conditions: spodoptera frugiperda, sf9, 20 µM
Description: Drug-stimulated Pgp ATPase activity ratio determined in MDR1-Sf9 cell membranes with test compound at a concentration of 20uM

[3] = molecular target: T2, ATP-dependent translocase ABCB1 (MDR1) (Homo sapiens, UniProt P08183); experiment: in vitro; conditions: dog
T2 sequence (P08183 whole entry): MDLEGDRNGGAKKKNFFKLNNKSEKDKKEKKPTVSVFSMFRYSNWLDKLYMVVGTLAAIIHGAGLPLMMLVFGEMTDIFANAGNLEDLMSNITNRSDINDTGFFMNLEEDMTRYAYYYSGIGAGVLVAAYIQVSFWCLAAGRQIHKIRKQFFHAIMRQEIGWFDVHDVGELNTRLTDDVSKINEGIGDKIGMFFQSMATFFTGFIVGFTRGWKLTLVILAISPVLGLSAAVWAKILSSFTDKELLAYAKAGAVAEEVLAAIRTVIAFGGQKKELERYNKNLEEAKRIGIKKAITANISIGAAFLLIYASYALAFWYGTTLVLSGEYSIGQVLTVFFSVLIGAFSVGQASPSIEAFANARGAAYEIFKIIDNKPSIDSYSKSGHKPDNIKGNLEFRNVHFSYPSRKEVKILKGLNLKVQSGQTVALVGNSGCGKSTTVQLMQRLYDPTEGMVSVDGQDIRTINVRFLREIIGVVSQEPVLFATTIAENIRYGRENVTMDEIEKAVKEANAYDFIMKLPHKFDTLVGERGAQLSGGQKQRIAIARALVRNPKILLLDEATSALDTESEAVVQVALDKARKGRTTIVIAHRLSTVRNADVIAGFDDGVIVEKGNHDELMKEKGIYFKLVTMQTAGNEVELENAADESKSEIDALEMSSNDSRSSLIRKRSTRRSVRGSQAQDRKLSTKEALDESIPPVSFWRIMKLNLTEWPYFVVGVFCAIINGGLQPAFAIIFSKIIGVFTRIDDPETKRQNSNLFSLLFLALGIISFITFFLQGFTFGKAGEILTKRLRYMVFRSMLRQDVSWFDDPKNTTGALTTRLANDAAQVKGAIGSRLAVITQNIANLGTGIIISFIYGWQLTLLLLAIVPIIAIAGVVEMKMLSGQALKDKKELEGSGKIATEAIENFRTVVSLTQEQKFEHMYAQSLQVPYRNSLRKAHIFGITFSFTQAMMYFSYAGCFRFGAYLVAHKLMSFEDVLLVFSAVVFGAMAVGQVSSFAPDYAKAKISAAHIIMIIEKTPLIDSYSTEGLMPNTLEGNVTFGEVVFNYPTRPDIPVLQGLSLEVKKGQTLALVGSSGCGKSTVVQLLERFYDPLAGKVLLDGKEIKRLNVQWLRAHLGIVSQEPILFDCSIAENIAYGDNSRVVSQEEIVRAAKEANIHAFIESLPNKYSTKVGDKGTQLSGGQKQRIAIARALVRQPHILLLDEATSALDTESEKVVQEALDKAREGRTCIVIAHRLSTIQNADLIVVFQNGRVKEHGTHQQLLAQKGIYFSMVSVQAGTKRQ
Description: Apparent permeability (Papp) from apical to basolateral side determined in MDR1-MDCKII cells

[4] = molecular target: T2, ATP-dependent translocase ABCB1 (MDR1); experiment: in vitro; conditions: dog; remark: listed apart in the source
Description: Apparent permeability (Papp) from basolateral to apical side determined in MDR1-MDCKII cells

[5] = molecular target: T2, ATP-dependent translocase ABCB1 (MDR1); experiment: in vitro; conditions: dog; remark: listed apart in the source
Description: Ratio of apparent permeability from basolateral to apical side over apical to basolateral side determined in MDR1-MDCKII cells
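Wherever Ratio ATPase activity is given: Compound-stimulated ATPase activity measured in membrane preparations of MDR1-expressing Sf9 cells.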

T1 sequence (P08183 whole entry): as above

Row | Compound | Activity [1] | Ratio_ATPase activity [2] | Papp A→B ([3]; MDCK-MDR1, Papp) | Papp B→A ([4]; MDCK-MDR1, Papp) | efflux ratio ([5]; MDCK-MDR1, Ratio_Papp) | Papp A→B ([3]; MDCK-MDR1) | Papp B→A ([4]; MDCK-MDR1) | efflux ratio ([5]; MDCK-MDR1)
1 | CC[C@]1(O)C[C@H]2CN(CCc3c([nH]c4ccccc34)[C@@](C(=O)OC)(c3cc4c(cc3OC)N(C=O)[C@H]3[C@@](O)(C(=O)OC)[C@H](OC(C)=O)[C@]5(CC)C=CCN6CC[C@]43[C@@H]65)C2)C1 [VINCRISTINE] | is not a substrate [-] | 1.46 | 0.236 ×10⁻⁶ cm/s | 1.49 ×10⁻⁶ cm/s | 6.31 | – | – | –
2 | CC(C)(C)NC(=O)[C@@H]1CN(Cc2cccnc2)CCN1C[C@@H](O)C[C@@H](Cc1ccccc1)C(=O)N[C@H]1c2ccccc2C[C@H]1O.O | substrate [+] | 9.59 | 0.869 ×10⁻⁶ cm/s | 17.6 ×10⁻⁶ cm/s | 20.3 | – | – | –
3 | COc1cc2c(c(OC)c1OC)-c1ccc(OC)c(=O)cc1[C@@H](NC(C)=O)CC2 [COLCHICINE] | is not a substrate [-] | 1.23 | – | – | – | 1.79 ×10⁻⁶ cm/s | 20.2 ×10⁻⁶ cm/s | 11.3
4 | COC(=O)Nc1nc2ccc(C(=O)c3ccccc3)cc2[nH]1 [MEBENDAZOLE] | substrate [+] | 2 | 71.4 ×10⁻⁶ cm/s | 64.8 ×10⁻⁶ cm/s | 0.91 | – | – | –
5 | CC[C@H]1OC(=O)[C@H](C)[C@@H](O[C@H]2C[C@@](C)(OC)[C@@H](O)[C@H](C)O2)[C@H](C)[C@@H](O[C@@H]2O[C@H](C)C[C@H](N(C)C)[C@H]2O)[C@](C)(OC)C[C@@H](C)C(=O)[C@H](C)[C@@H](O)[C@]1(C)O [CLARITHROMYCIN] | substrate [+] | 3.55 | 1.08 ×10⁻⁶ cm/s | 33.6 ×10⁻⁶ cm/s | 31.3 | – | – | –
6 | CN(C)C(=O)Oc1cccc([N+](C)(C)C)c1.[Br-] [NEOSTIGMINE BROMIDE] | is not a substrate [-] | 1.06 | – | – | – | 0.758 ×10⁻⁶ cm/s | 1.37 ×10⁻⁶ cm/s | 1.81
7 | CCN(CC)CCCC(C)Nc1ccnc2cc(Cl)ccc12 (stereo not given) [CHLOROQUINE] | is not a substrate [-] | 0.77 | 4.49 ×10⁻⁶ cm/s | 17.2 ×10⁻⁶ cm/s | 3.83 | – | – | –
8 | COc1cccc2c1C(=O)c1c(O)c3c(c(O)c1C2=O)C[C@@](O)(C(C)=O)C[C@@H]3O[C@H]1C[C@H](N)[C@H](O)[C@H](C)O1 [DAUNORUBICIN] | is not a substrate [-] | 1.69 | 0.547 ×10⁻⁶ cm/s | 7.77 ×10⁻⁶ cm/s | 14.2 | – | – | –
9 | CN1CCC[C@@H]1Cc1c[nH]c2ccc(CCS(=O)(=O)c3ccccc3)cc12 | substrate [+] | 2.22 | 1.84 ×10⁻⁶ cm/s | 57.8 ×10⁻⁶ cm/s | 31.5 | – | – | –
10 | Cc1ncc2n1-c1ccc(Cl)cc1C(c1ccccc1F)=NC2 [MIDAZOLAM] | substrate [+] | 3.82 | – | – | – | 70.1 ×10⁻⁶ cm/s | 56.4 ×10⁻⁶ cm/s | 0.81
11 | COc1ccc(C[C@H](N)C(=O)N[C@H]2[C@@H](O)[C@H](n3cnc4c(N(C)C)ncnc43)O[C@@H]2CO)cc1 [PUROMYCIN] | is not a substrate [-] | 1.21 | 1.15 ×10⁻⁶ cm/s | 3.56 ×10⁻⁶ cm/s | 3.1 | – | – | –
12 | CC(=O)O[C@H]1C(=O)[C@@]2(C)[C@H]([C@H](OC(=O)c3ccccc3)[C@]3(O)C[C@H](OC(=O)[C@H](O)[C@@H](NC(=O)c4ccccc4)c4ccccc4)C(C)=C1C3(C)C)[C@]1(OC(C)=O)CO[C@@H]1C[C@@H]2O [PACLITAXEL] | substrate [+] | 2.63 | < 0.125 ×10⁻⁶ cm/s | 13.5 ×10⁻⁶ cm/s | > 108 | – | – | –
13 | CCOC(=O)C1=C(C)NC(C)=C(C(=O)OC)C1c1cccc([N+](=O)[O-])c1 (stereo not given) [NITRENDIPINE] | substrate [+] | 3.22 | 60.4 ×10⁻⁶ cm/s | 48.3 ×10⁻⁶ cm/s | 0.8 | – | – | –
